Measurements published in ChEMBL document CHEMBL2010673, “Structure-activity relationship of pyrrole based S-nitrosoglutathione reductase inhibitors: carboxamide modification” (Bioorg Med Chem Lett, 2012).
pIC50: −log10 of the molar value.

Test system: A549
Assay: Cytotoxicity against human A549 cells after 48 hrs by MTS assay
Assay type: cell-based
Details: A549, 48 h; call rule not given here

SMILES	pIC50
Cc1cc(NS(C)(=O)=O)ccc1-n1c(CCC(=O)O)ccc1-c1cc(-n2ccnc2C)cs1	< 3.82
Cc1nccn1-c1ccc(-c2ccc(CCC(=O)O)n2-c2ccc(S(N)(=O)=O)cc2)s1	< 3.82
Cc1cc(S(N)(=O)=O)ccc1-n1c(CCC(=O)O)ccc1-c1ccc(-n2ccnc2C)s1	< 3.82
Cc1nccn1-c1ccc(-c2ccc(CCC(=O)O)n2-c2ccc(O)cc2)s1	< 3.82

Test system: not listed separately
Assay: Oral bioavailability in BALB/c mouse at 10 mg/kg by LC-MS/MS analysis
Assay type: ADME, organism-based
Details: in vivo

bioavailability	SMILES
6.8%	O=C(O)CCc1ccc(-c2ccc(-n3ccnc3)cc2)n1-c1ccc(O)cc1
3.9%	Cc1nccn1-c1ccc(-c2ccc(CCC(=O)O)n2-c2ccc(O)cc2)s1

Test system: not listed separately
Assay: Plasma clearance in BALB/c mouse at 2 mg/kg, iv by LC-MS/MS analysis
Assay type: ADME, organism-based
Parameters: dose 2 mg/kg, route intravenous
Details: not given

clearance	SMILES
37.1 mL/min/kg	O=C(O)CCc1ccc(-c2ccc(-n3ccnc3)cc2)n1-c1ccc(O)cc1
23.9 mL/min/kg	Cc1nccn1-c1ccc(-c2ccc(CCC(=O)O)n2-c2ccc(O)cc2)s1

Test system: not listed separately
Assay: Inhibition of Smt-tagged S-nitrosoglutathione reductase expressed in Escherichia coli using […] as substrate for 3 mins by spectrophotometric analysis
Details: not given

IC50	SMILES
Not Active	CCOC(=O)CCc1ccc(-c2ccc(OC)cc2)n1-c1ccc(CC(N)=O)cc1

Same assay, conditions: read-out: IC50

pIC50	SMILES
6.48	CCOC(=O)CCc1ccc(-c2ccc(OC)cc2)n1-c1ccc(S(N)(=O)=O)cc1C
7.02	Cc1nccn1-c1csc(-c2ccc(CCC(=O)O)n2-c2ccc(O)cc2)c1
7.41	O=C(O)CCc1ccc(-c2ccc(-n3ccnc3)cc2)n1-c1ccc(O)cc1
5.85	Cc1cc(N)ccc1-n1c(CCC(=O)O)ccc1-c1ccc(-n2ccnc2)cc1
6.18	CCOC(=O)CCc1ccc(-c2ccc(OC)cc2)n1-c1ccc(C(=O)NCCO)cc1C
7.06	CCC(=O)Nc1ccc(-n2c(CCC(=O)O)ccc2-c2ccc(-n3ccnc3)cc2)c(C)c1
6.14	CCOC(=O)CCc1ccc(-c2ccc(OC)cc2)n1-c1ccc(C(=O)NCCOC)cc1C
6.02	CCOC(=O)CCc1ccc(-c2ccc(OC)cc2)n1-c1ccc(C(C)=O)cc1
5.74	CCOC(=O)CCc1ccc(-c2ccc(OC)cc2)n1-c1ccc(OC)cc1C
5.88	CCOC(=O)CCc1ccc(-c2ccc(OC)cc2)n1-c1ccc(C(=O)N(C)C)cc1C
5.75	Cc1nccn1-c1ccc(-c2ccc(CCC(=O)O)n2-c2ccc(NS(C)(=O)=O)cc2)cc1
7.02	COCC(=O)Nc1ccc(-n2c(CCC(=O)O)ccc2-c2ccc(-n3ccnc3)cc2)c(C)c1
6.96	Cc1cc(C(=O)O)ccc1-n1c(CCC(=O)O)ccc1-c1ccc(-n2ccnc2)cc1
6.62	CCOC(=O)CCc1ccc(-c2ccc(OC)cc2)n1-c1ccc(O)cc1
7.21	CCOC(=O)CCc1ccc(-c2ccc(Br)cc2)n1-c1ccc(C(=O)Nc2ccncc2)cc1C
7.49	O=C(O)CCc1ccc(-c2ccc(-n3ccnc3)s2)n1-c1ccc(O)cc1
6.36	CCOC(=O)CCc1ccc(-c2ccc(OC)cc2)n1-c1ccc(C(=O)Nc2cccnc2)cc1C
6.74	Cc1cc(NS(C)(=O)=O)ccc1-n1c(CCC(=O)O)ccc1-c1ccc(-n2ccnc2C)cc1
5.49	CCOC(=O)CCc1ccc(-c2ccc(OC)cc2)n1-c1ccc(Br)cc1
7.12	Cc1cc(NS(C)(=O)=O)ccc1-n1c(CCC(=O)O)ccc1-c1cc(-n2ccnc2C)cs1
7.64	Cc1nccn1-c1ccc(-c2ccc(CCC(=O)O)n2-c2ccc(S(N)(=O)=O)cc2)s1
6.19	CCOC(=O)CCc1ccc(-c2ccc(OC)cc2)n1-c1ccc(C(=O)Nc2ccnnc2)cc1C

pIC50	SMILES
5.81	CCOC(=O)CCc1ccc(-c2ccc(OC)cc2)n1-c1ccc(O)cc1C
6.44	Cc1nccn1-c1csc(-c2ccc(CCC(=O)O)n2-c2ccc(NS(C)(=O)=O)cc2)c1
7.27	Cc1nccn1-c1ccc(-c2ccc(CCC(=O)O)n2-c2ccc(O)cc2)cc1
6.74	Cc1cc(O)ccc1-n1c(CCC(=O)O)ccc1-c1ccc(-n2ccnc2)cc1
5.49	CCOC(=O)CCc1ccc(-c2ccc(OC)cc2)n1-c1ccc(NC(C)=O)cc1
5.05	CCOC(=O)CCc1ccc(-c2ccc(OC)cc2)n1-c1ccc(C)cc1C
7.66	Cc1cc(S(N)(=O)=O)ccc1-n1c(CCC(=O)O)ccc1-c1ccc(-n2ccnc2C)s1
7.44	Cc1nccn1-c1ccc(-c2ccc(CCC(=O)O)n2-c2ccc(O)cc2)s1
6.35	CC(=O)Nc1ccc(-n2c(CCC(=O)O)ccc2-c2ccc(-n3ccnc3C)cc2)c(C)c1
6.15	CCOC(=O)CCc1ccc(-c2ccc(OC)cc2)n1-c1ccc(NS(N)(=O)=O)cc1C
6.77	CCOC(=O)CCc1ccc(-c2ccc(OC)cc2)n1-c1ccc(C(=O)Nc2ccncc2)cc1C
7.35	Cc1nccn1-c1cc(-c2ccc(CCC(=O)O)n2-c2ccc(O)cc2)cs1
5.62	CCOC(=O)CCc1ccc(-c2ccc(OC)cc2)n1-c1ccc(C(=O)NC)cc1C
7.25	CC(=O)Nc1ccc(-n2c(CCC(=O)O)ccc2-c2ccc(-n3ccnc3)cc2)c(C)c1
5.43	CCOC(=O)CCc1ccc(-c2ccc(OC)cc2)n1-c1ccc(C(=O)Nc2cncnc2)cc1C
5.32	CCOC(=O)CCc1ccc(-c2ccc(OC)cc2)n1-c1ccc(NC(N)=O)cc1
5.80	Cc1cc(CN)ccc1-n1c(CCC(=O)O)ccc1-c1ccc(-n2ccnc2)cc1
5.34	CCOC(=O)CCc1ccc(-c2ccc(OC)cc2)n1-c1ccc(C(=O)NC)cc1
5.99	CCOC(=O)CCc1ccc(-c2ccc(OC)cc2)n1-c1ccc(OC)cc1
6.85	CC(=O)Nc1ccc(-n2c(CCC(=O)O)ccc2-c2cc(-n3ccnc3C)cs2)cc1
6.34	CCOC(=O)CCc1ccc(-c2ccc(OC)cc2)n1-c1ccc(C(N)=O)cc1
5.41	CC(=O)Nc1ccc(-n2c(CCC(=O)O)ccc2-c2ccc(-n3ccnc3C)cc2)cc1
